In US9796697B2, “Tricyclic inhibitors of HIF-2-alpha and uses thereof” (Peloton Therapeutics, Inc., priority 2015, dated 2017):

Tests used:
[1] = molecular target: T1, HIF-2α HIS TAG-PASB Domain (Homo sapiens, UniProt Q99814); assay: HIF-2α Scintillation Proximity Assay (SPA); assay type: binding; details: displacement of tritiated probe N-(3-Chlorophenyl-4,6-t2)-4-nitrobenzo[c][1,2,5]oxadiazol-5-amine from HIF-2α PASB domain
T1 construct: 100 nM HIF-2α HIS TAG-PASB Domain
Method: Example 8: HIF-2α Scintillation Proximity Assay (SPA)
The total assay volume was about 100 μL in the following configuration: 2 μL compound in 100% DMSO, 88 μL buffer with protein and probe and 10 μL of SPA beads. The compound was diluted in a master plate consisting of a 10-point dose response with a 3-fold compound dilution from 100 μM to 5 nM. Assays were run on a 96-well plate in which one column, designated as the high signal control, contained DMSO with no compound and another column, designated as the low signal control, contained no protein. Prior to plating out of compound, a buffer solution, consisting of 25 mM TRIS pH 7.5 (Sigma), 150 mM NaCl (Sigma), 15% Glycerol (Sigma), 0.15% BSA (Sigma), 0.001% Tween-20 (Sigma), 150 nM N-(3-Chlorophenyl-4,6-t2)-4-nitrobenzo[c][1,2,5]oxadiazol-5-amine and 100 nM HIF-2α HIS TAG-PASB Domain, was made and allowed to equilibrate for 30 minutes. Compounds that were to be tested were then plated in to a 96-well white clear bottom Isoplate-96 SPA plate (Perkin Elmer). To the compounds was added 88 μL of the buffer solution, then the plate covered with a plastic cover and aluminum foil, placed onto a shaker and equilibrated for 1 hour. After equilibration, 10 μL of a 2 mg/mL solution of YSi Cu His tagged SPA beads (Perkin Elmer) were then added to each well of the plate, covered and equilibrated for another 2 hours. The plates were then removed from the shaker, placed into a 1450 LSC and luminescence counter MicroBeta Trilux (Perkin Elmer) to measure the extent of probe displacement. The percent inhibition was determined and IC50 values were calculated using the Dotmatics system based on the following equation: % inhibition=[(high control−sample)/(high control−low control)]×100.

786-O-Hif-Luc cells = assay: Luciferase Assay; assay type: cell-based; details: HIF responsive element luciferase reporter, about 24 hours
Method: Example 10: Luciferase Assay
786-O-Hif-Luc single clone cells were obtained by infecting 786-0 cells (ATCC® CRL-1932™) with commercial lentivirus that delivers a luciferase gene driven by multiple HIF responsive elements (Cignal Lenti HIF Reporter (luc): CLS-007L, Qiagen) at Multiplicity of Infection (MOI) of 25 for 24 hours. The cells were replenished with fresh medium (Dulbecco's Modified Eagle's Medium (DMEM, D5796, Sigma) supplemented with 10% FBS (F6178, Sigma), 100 units penicillin and 100 μg streptomycin/mL (P4333, Sigma)) for another 24 hours. A pool of infected cells were then selected against 2 μg/mL of puromycin (P8833, Sigma) for 10 days followed by limited dilution to select single clones. […] For the luciferase assay, about 7500 786-O-Hif-Luc cells in 90 μL growth medium were seeded into each well of a 96-well white opaque plate (08-771-26, Fisher scientific) a day before treatment with the layout presented in FIG. 2.
On treatment day, serial dilutions of 10× compound stocks were made in growth medium from 500×DMSO stocks, and 10 μL, of the 10× stocks were added to each well to make final concentrations as follows GAM): 20, 6.67, […], 0.74, 0.25, 0.08, 0.027, 0.009, 0.003, 0.001, and 0. Each concentration was tested in triplicate. After about 24 hours, luciferase activity was determined using ONE-Glo Luciferase Assay Reagent (E6110, Promega) following the manufacturer's recommended procedure. EC50 were calculated using Dotmatics software.

786-O cells = assay: VEGF ELISA Assay; assay type: cell-based; details: Homo sapiens, 786-0; VEGF concentration in culture medium of 786-O cells
Method: Example 9: VEGF ELISA Assay
About 7500 786-O cells in 180 μL of growth medium were seeded into each well of a 96-well, white, clear bottom plate (07-200-566, Fisher Scientific) on day one in the layout presented in FIG. 1.
Four hours later, serial dilutions of 10× compound stocks were made in growth medium from 500×DMSO stocks, and 20 μL of those 10× stocks were added to each well to make final concentrations as follows (μM): 20, 6.67, 2.22, 0.74, 0.25, 0.082, 0.027, 0.009, 0.003, 0.001, and 0. Each concentration was plated in duplicate. About 20 hours later, medium was removed by suction and each well was supplied with 180 μL of growth medium. About 20 μl freshly-made 10× compound stocks were added to each well. […] The EC50 was calculated by GraphPad Prism using the dose-response-inhibition (four parameter) equation. The cell-seeded plate was then subjected to CellTiter-Glo luminescence cell viability assay (Promega) by adding 50 μL of Celltiter Glo reagent into each well and shaking the plate for 8 minutes at 550 rpm (Thermomixer R, Eppendorf) then the luminescence signal immediately read in a plate reader (3 second delay, 0.5 second/well integration time, Synergy 2 multi Detection Microplate reader).

T1 sequence (Q99814 239-348): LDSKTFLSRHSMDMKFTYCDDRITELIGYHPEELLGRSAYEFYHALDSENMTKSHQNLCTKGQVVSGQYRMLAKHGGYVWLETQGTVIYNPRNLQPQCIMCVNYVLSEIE

Compound	EC50 [1] [nM]	EC50 (786-O-Hif-Luc cells) [nM]	EC50 (786-O cells) [nM]
N#Cc1cc(F)cc(Oc2ccc3c4c2C(F)C(F)C4(O)CS3(=O)=O)c1 (centres unmarked) [Compound 5]	> 1000	> 1000	
N#Cc1cc(F)cc(Oc2ccc3c4c2C(F)CC4(F)C(F)(F)S3(=O)=O)c1 (centres unmarked) [Compound 10, 3-fluoro-5-((2,2,2a,4-tetrafluoro-1,1-dioxido-2,2a,3,4-tetrahydroindeno[7,1-bc]thiophen-5-yl)oxy)benzonitrile]	250 to 1000		
N#Cc1cc(F)cc(Oc2ccc3c4c2C(F)CC4(O)C(F)(F)S3(=O)=O)c1 (centres unmarked) [Compound 6, 3-fluoro-5-((2,2,4-trifluoro-2a-hydroxy-1,1-dioxido-2,2a,3,4-tetrahydroindeno[7,1-bc]thiophen-5-yl)oxy)benzonitrile]	< 50	< 50	50 to 249
N#Cc1cc(F)cc(Oc2ccc3c4c2C(F)CC4(F)CS3(=O)=O)c1 (centres unmarked) [Compound 1]	> 1000		
C=C1CC2(N)c3c(ccc(Oc4cc(F)cc(C#N)c4)c31)S(=O)(=O)C2(F)F (centres unmarked) [Compound 3, 3-((2a-amino-2,2-difluoro-4-methylene-1,1-dioxido-2,2a,3,4-tetrahydroindeno[7,1-bc]thiophen-5-yl)oxy)-5-fluorobenzonitrile]	50 to 249	250 to 1000	
N#Cc1cc(F)cc(Oc2ccc3c4c2CCC4(O)C(F)(F)S3(=O)=O)c1 (centres unmarked) [Compound 4]	50 to 249	50 to 249	
C=C1CC2(O)c3c(ccc(Oc4cncc(C#N)c4)c31)S(=O)(=O)C2(F)F (centres unmarked) [Compound 14]	< 50	250 to 1000	
C=C1CC2(O)CS(=O)(=O)c3ccc(Oc4cc(F)cc(C#N)c4)c1c32 (centres unmarked) [Compound 12]	> 1000		
N#Cc1cncc(Oc2ccc3c4c2C(F)CC4(F)C(F)(F)S3(=O)=O)c1 (centres unmarked) [Compound 2]	> 1000		
C=C1CC2(O)c3c(ccc(Oc4cncc(F)c4)c31)S(=O)(=O)C2(F)F (centres unmarked) [Compound 9]	250 to 1000	250 to 1000	
CC1CC2(O)c3c(ccc(Oc4cc(F)cc(C#N)c4)c31)S(=O)(=O)C2(F)F (centres unmarked) [Compound 8, 3-((2,2-difluoro-2a-hydroxy-4-methyl-1,1-dioxido-2,2a,3,4-tetrahydroindeno[7,1-bc]thiophen-5-yl)oxy)-5-fluorobenzonitrile]	50 to 249	50 to 249	
N#Cc1cc(F)cc(Oc2ccc3c4c2C(F)CC4(O)CS3(=O)=O)c1 (centres unmarked) [Compound 7]	> 1000		
C=C1CC2(O)c3c(ccc(Oc4cc(F)cc(C#N)c4)c31)S(=O)(=O)C2(F)F (centres unmarked) [Compound 13, 3-((2,2-difluoro-2a-hydroxy-4-methylene-1,1-dioxido-2,2a,3,4-tetrahydroindeno[7,1-bc]thiophen-5-yl)oxy)-5-fluorobenzonitrile]	< 50	< 50	< 50
N#Cc1cc(F)cc(Oc2ccc3c4c2C(=O)CC4(O)C(F)(F)S3(=O)=O)c1 (centres unmarked) [Compound 11, 3-((2,2-difluoro-2a-hydroxy-1,1-dioxido-4-oxo-2,2a,3,4-tetrahydroindeno[7,1-bc]thiophen-5-yl)oxy)-5-fluorobenzonitrile]	250 to 1000	250 to 1000	

Other lines, results leading:

EC50 [1] [nM]	EC50 (786-O-Hif-Luc cells) [nM]	EC50 (786-O cells) [nM]	Compound
< 50	< 50	< 50	N#Cc1cc(F)cc(Oc2ccc3c4c2[C@@H](F)C[C@]4(O)C(F)(F)S3(=O)=O)c1 [Compound 15]
50 to 249	250 to 1000		N#Cc1cc(F)cc(Oc2ccc3c4c2CCC4C(F)(F)S3(=O)=O)c1 (centres unmarked) [Compound 18]
> 1000			C=C1CC2(O)c3c(ccc(OCC(F)F)c31)S(=O)(=O)C2(F)F (centres unmarked) [Compound 17]
> 1000			N#Cc1cc(F)cc(Oc2ccc3c4c2C(F)C(F)C4(F)CS3(=O)=O)c1 (centres unmarked) [Compound 16]
> 1000			N#Cc1cc(F)cc(Oc2ccc3c4c2C(F)C[C@@]4(O)C(F)(F)S3(=O)=O)c1 (some centres unmarked) [Compound 20]
50 to 249	250 to 1000		N#Cc1cncc(Oc2ccc3c4c2C(F)CC4(O)C(F)(F)S3(=O)=O)c1 (centres unmarked) [Compound 19]
